US11840545B1, “Spirooxindole-copper complex as novel efficient anticorrosion agent for C-steel” (KING FAISAL UNIVERSITY, priority 2023, dated 2023)

Legend:
[1] = Polarization (Tafel) study of corrosion inhibition; details: for IE: polarization, C-steel, 1M HCl, 298 K; for % inhibition from Tafel: summary Table 16, C-steel in 1 M HCl; for % Inhibition from Tafel plots: summary Table 18, C-steel in 1 M HCl
Description: (§1) In an embodiment, the thus formed CuL copper complex can undergo anticorrosion studies by adding the obtained CuL copper complex to hydrochloric acid (for example, at 1M) using a C-steel electrode.
(§2) The % inhibition of Spiro compounds SP34, SP37 and SP311 and their copper complexes for C-steel in hydrochloric acid solution (1M) were computed by Impedance and Polarization studies. The model used for the electrochemical equivalent circuit to fit the impedance for anticorrosion studies of Carbon steel (C-steel) by Spiro inhibitors was CPE with diffusion as shown in FIG. 7.

[2] = Impedance study of corrosion inhibition, equivalent circuit model CPE with Diffusion; details: for IE: impedance, C-steel, 1M HCl, 298 K; for % inhibition from Impedance: summary Table 16, C-steel in 1 M HCl; for % Inhibition from Impedance studies: summary Table 17, C-steel in 1 M HCl
Description: as §1, §2

With `Cc1[nH]nnc1C(=O)[C@H]1[C@H](c2ccc(Cl)cc2Cl)C2CSCN2[C@]12C(=O)Nc1cc(Cl)ccc12` (stereo partly drawn) [SP 34, (3R,6'S,7′R)-6-chloro-7′-(2,4-dichlorophenyl)-6′-(5-methyl-1H-1,2,3-triazole-4-carbonyl)-1′,6′,7′,7a′-tetrahydro-3′H-spiro[indoline-3,5′-pyrrolo[1,2-c]thiazol]-2-one] as the compound, how does the IE ([1]; 0.037 mM) read?
Its IE is 90.5%.

And the IE ([1]; 0.075 mM)?
Its IE is 97.1%.

What about the IE ([1]; 0.112 mM) of the same compound?
Its IE is 98.6%.

What about the “% inhibition from Tafel” value [1] of the same compound?
Its value is 98.6%.

And the “% Inhibition from Tafel plots” value [1]?
The value was 98.6%.

And the IE ([2]; 0.037 mM)?
Its IE is 82.48%.

What about the IE ([2]; 0.075 mM) of the same compound?
The IE was 94.25%.

And the IE ([2]; 0.112 mM)?
Its IE is 97.37%.

What about the “% inhibition from Impedance” value [2] of the same compound?
The value was 96.97%.

What about the “% Inhibition from Impedance studies” value [2] of the same compound?
The value was 96.97%.

For `Cc1[nH]nnc1C(=O)[C@H]1[C@H](c2cccc([N+](=O)[O-])c2)C2CSCN2[C@]12C(=O)Nc1cc(Cl)ccc12` (stereo partly drawn) [SP 37, (3R,6'S,7′R)-6-chloro-6′-(5-methyl-1H-1,2,3-triazole-4-carbonyl)-7′-(3-nitrophenyl)-1′,6′,7′,7a′-tetrahydro-3′H-spiro[indoline-3,5′-pyrrolo[1,2-c]thiazol]-2-one], which IE ([1]; 0.039 mM) is on record?
Its IE is 49.0%.

And the IE ([1]; 0.078 mM)?
Its IE is 72.7%.

And the IE ([1]; 0.117 mM)?
The IE was 82.1%.

What about the “% inhibition from Tafel” value [1] of the same compound?
Its value is 82.1%.

And the “% Inhibition from Tafel plots” value [1]?
Its value is 82.1%.

And the IE ([2]; 0.039 mM)?
Its IE is 21.25%.

And the IE ([2]; 0.078 mM)?
Its IE is 46.85%.

What about the IE ([2]; 0.117 mM) of the same compound?
Its IE is 56.53%.

And the “% inhibition from Impedance” value [2]?
Its value is 56.53%.

And the “% Inhibition from Impedance studies” value [2]?
The value was 56.53%.

Which IE ([1]; 0.036 mM) does the source give for `Cc1[nH]nnc1C(=O)[C@H]1[C@H](c2cccc(Br)c2)C2CSCN2[C@]12C(=O)Nc1cc(Cl)ccc12` (stereo partly drawn) [SP 311, (3R,6'S,7′R)-7′-(3-bromophenyl)-6-chloro-6′-(5-methyl-1H-1,2,3-triazole-4-carbonyl)-1′,6′,7′,7a′-tetrahydro-3′H-spiro[indoline-3,5′-pyrrolo[1,2-c]thiazol]-2-one] here?
Its IE is −1.5%.

And the IE ([1]; 0.073 mM)?
Its IE is 13.0%.

And the IE ([1]; 0.109 mM)?
The IE was 81.6%.

What about the “% inhibition from Tafel” value [1] of the same compound?
Its value is 81.6%.

And the “% Inhibition from Tafel plots” value [1]?
The value was 81.6%.

What about the IE ([2]; 0.036 mM) of the same compound?
The IE was 14.26%.

And the IE ([2]; 0.073 mM)?
The IE was 8.96%.

What about the IE ([2]; 0.109 mM) of the same compound?
The IE was 62.89%.

What about the “% inhibition from Impedance” value [2] of the same compound?
Its value is 62.89%.

And the “% Inhibition from Impedance studies” value [2]?
Its value is 62.89%.
